Active and inactive are the calls of the source. How the calls were made is not given here. A value given as a limit tells only on which side of the number the result lay.

For this assay, the system named is MT1-MMP promoter luciferase reporter cells, luminescence. In words: inhibitors of MT1-MMP promoter transcription, cell-based, luciferase reporter, luminescence (AID 618).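 Further: actives suppress MT1-MMP promoter-driven transcription so potencies describe inhibitors.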 In general terms: A reporter such as luciferase makes a cellular process visible.
For orientation: EC50 means the concentration needed to bring the measured effect to its halfway point. Take `Oc1cccc(-c2nc3ccccc3s2)c1`: the EC50 is 2.99 µM.
The value for `Cc1cc(C(=O)CSc2nnc(-c3cccs3)o2)c(C)n1-c1ccccc1` was 7.72 µM.
Regarding `O=C(/C=C\Nc1ccccn1)c1ccc(Cl)cc1`, the EC50 was 1.18 µM.
For `CC(C)(C)c1ccc(C(=O)N2CCCCCC2=O)cc1`, the EC50 was 12.8 µM.
`Cc1cc(-c2csc(N)n2)c(C)n1CCC(C)C`: the EC50 was 39.9 µM.
In the case of `CCn1c(SCC(=O)Nc2ccccc2C)nnc1-c1ccccc1O`, the EC50 is > 50 µM (inactive).
The value for `COc1ccc(-c2cc(C(=O)O)c(C)o2)cc1OC` was 3.55 µM; that for `Cc1ccc(-c2nc(-c3ccccc3)no2)cc1` was 2.87 µM.
Next, `Cc1oncc1C(=O)Nc1ccc(C(F)(F)F)cc1`: 5.65 µM.
Next, `O=C1C(c2ccnc3ccccc23)=C(O)c2ccccc21`: > 50 µM (inactive); `O=c1c2sc(-c3ccccc3)cc2nc2n1CCC2`: 4.05 µM; `COC(=O)Cc1ccc(NC(=O)c2ccc(C(C)(C)C)cc2)cc1`: 0.31 µM.
On to `Cc1ccc(C(=O)Nc2cccc(C(=O)O)c2)cc1`, for which the EC50 was 0.66 µM.
Next, `O=C1C(N2CCOCC2)=C(n2nnc3ccccc32)C(=O)c2ccccc21`: 10.5 µM.
Next, `COc1cccc(C(=O)Nc2nc3ccccc3[nH]2)c1`: 0.96 µM.
Next, `COCCn1c(C)cc(C2=NNC(=Nc3ccccc3F)SC2)c1C`: 3.04 µM.
In the case of `COc1ccc(C2=Nc3ccccc3OC2)cc1`, the EC50 was 38.1 µM.
Consider `Cc1nc(NC2=NCN(CCCN3CCOCC3)CN2)nc2c(C)cccc12`, for which the EC50 is 34.3 µM.
The value for `CCCCCN=Cc1c(C)[nH]n(-c2nc3ccccc3s2)c1=O` was 6.14 µM; that for `CC(=O)Nc1ccc2oc(-c3cc(F)c(F)cc3Cl)nc2c1` was 3.48 µM; that for `O=C(/C=C\Nc1ccc2c(c1)OCO2)c1ccccn1` was 0.23 µM.
Next, `O=C(c1c(Cl)nc2sccn12)N1CCN(c2cccc(Cl)c2)CC1`: 48.6 µM; `CCCCN(C)C(=O)c1cc2cc3ccc(OC)cc3nc2s1`: 3.61 µM; `O=C(CN1C(=O)c2ccccc2S1(=O)=O)c1ccccc1`: > 50 µM (inactive).
The value for `Cc1ccc(C(=O)Nc2cnc3ccccc3c2)cc1` was 0.2 µM.
For `COc1ccccc1-c1cc(C(F)(F)F)nc(S(=O)(=O)CCCC(=O)N2CCOCC2)n1`, the EC50 was 22 µM.
The value for `CN(C)c1ccc(NC(=S)c2ccccn2)cc1` was 0.4 µM.
The value for `COc1ccc(-n2ncc3c(NC(C)C)ncnc32)cc1` was 5.36 µM.
Next, `c1ccc(-c2ccc(-c3nc(-c4ccncc4)no3)cc2)cc1`: 9.02 µM; `CCCN1C=CC(=C2C(=O)c3ccccc3C2=O)C=C1`: below 0.098 µM; `Cc1ccc(-c2nc3cc(N)ccc3o2)c(C)c1`: 2.68 µM.
For the molecule `Cc1csc(NC(=O)C2COc3ccccc3O2)n1` (stereo unspecified), the EC50 is 1.64 µM.
The value for `CCCOc1ccc(-c2nnc(-c3cccs3)o2)cc1` was 4.37 µM; that for `O=C(O)CSCC(=O)Nc1ccc(C2CCCCC2)cc1` was 0.58 µM; that for `Cc1ccc(C(=O)/C=C2\NCC(C)NC2=O)cc1` (stereo unspecified) was 3.53 µM.
Regarding `NC(=O)c1c(NC(=O)c2cc3ccccc3o2)sc2c1CCC2`, the EC50 is 6.54 µM.
For `CCCCCc1ccc(-c2ccc(C(=O)O)cc2)nc1`, the EC50 is 3.53 µM.
In the case of `CCOc1ccc(OCc2ccc(C(=O)O)o2)cc1`, the EC50 was 5.8 µM.
The value for `N#Cc1c(NC(=O)CSc2ncn[nH]2)sc2c1CCCCC2` was below 0.098 µM; that for `Fc1ccccc1OCCSc1nnnn1-c1ccccc1` was 12.7 µM.
As to `COc1cccc(C(=O)NCCC2=CCCCC2)c1`, the concentration for a half-maximal effect (EC50) was 8.74 µM.
The value for `CC1CC(C)(C)Nc2ccc(OC(=O)c3ccco3)cc21` (stereo unspecified) was 3.01 µM.
Next, `COc1ccc(O)c(C(=O)CC(=O)c2ccccc2)c1`: 2.22 µM.
Next, `CC(=O)Nc1ccc(OC(=O)N2CCCCC2)cc1`: > 50 µM (inactive); `CN(C)c1ccc(N/C=C/C(=O)c2ccco2)cc1`: 4.42 µM.
For the molecule `CCOc1ccc(-c2nnc(-c3ccco3)o2)cc1`, the EC50 is 1.42 µM.
Turning to `COc1ccccc1-c1nc(-c2ccccn2)no1`, the EC50 is 1.82 µM.
As to `Cc1ccc(-c2nc3cc(C)ccc3o2)cc1`, the EC50 is 2.32 µM.
The value for `Cc1cccc(C(=O)N2CCN(C(=O)c3cccc(C)c3)C(C)C2)c1` (stereo unspecified) was > 50 µM (inactive); that for `Cc1ccc(SCc2cn3c(C)csc3n2)cc1` was 5.82 µM.
The value for `O=C(Nc1ccc(N2CCCC2)c(Cl)c1)c1ccco1` was 2.68 µM; that for `CC(C)(C)C(=O)N1CCc2cc(-c3csc(N)n3)ccc21` was 1.36 µM.
As for `Cc1ccc(C(=O)Nc2nc3c(s2)CCCC3)o1`, the EC50 was 5.98 µM.
The value for `Cc1ccc(CNc2nc3ccccc3s2)s1` was 1.67 µM.
Next, `O=c1c(Cl)c(N2CCCCC2)cnn1-c1nc2ccccc2[nH]1`: 0.59 µM; `O=C(Nc1ccc(NC(=O)c2ccco2)nc1)c1ccccn1`: 9.01 µM.
Next, `O=C(c1ccc(Cl)cc1)N1CCCCC(Sc2nnc(-c3ccc4c(c3)OCO4)o2)C1=O` (stereo unspecified): 0.14 µM.
Consider `Cc1cc(C)c2c(N)c(C(=O)Nc3nccs3)sc2n1`, for which the EC50 was 1.32 µM.
Next, `CN1/C(=C/C(=O)c2nc(S(C)(=O)=O)ncc2Cl)C(C)(C)c2ccccc21`: 16.1 µM.
The value for `CCc1ccc(-c2nnn(CCC(=O)OC)n2)cc1` was 2.02 µM; that for `C/C(=N/NC(=O)c1cc(C2CC2)[nH]n1)c1cccs1` was 1.77 µM; that for `Cc1cc(C(=O)COC(=O)c2n[nH]c3ccccc23)c(C)n1C` was 7.21 µM.
For `Cc1ccc(C(=O)COC(=O)c2cccs2)cc1`, the EC50 was 18.6 µM.
`Cc1c(C(=O)NCC2CCCO2)oc2ccc3c(c12)C(=O)CC(C)(C)O3` (stereo unspecified): the EC50 is 12.5 µM.
For `Cc1oc(-c2ccc3c(c2)OCCO3)cc1C(=O)O`, the 50% effective concentration (EC50) is 2.94 µM.
Turning to `Cc1ccc(NC(=O)N2CCc3ccccc32)cc1`, the EC50 was 3.38 µM.
Next, `Cc1ccc(C(=O)Nc2cccc(C(=O)O)c2)cc1S(=O)(=O)N1CCCCC1`: 7.25 µM; `COc1ccc(C(=O)Nc2nnc(-c3ccco3)s2)cc1`: 1.73 µM; `CN1CCN(c2ncnc3c2cnn3-c2ccc(Cl)cc2)CC1`: 3.9 µM.
Next, `CN(C)c1nc(-c2ccccn2)nnc1-c1ccccc1`: > 50 µM (inactive); `O=C1c2ccccc2S(=O)(=O)N1Cc1nc2ccccc2s1`: 3.06 µM; `CNc1nnc(-c2ccc(N(C)C)cc2)s1`: 5.1 µM.
With `COc1ccc(-c2noc(CCCC(=O)O)n2)cc1`, the EC50 was 0.77 µM.
On to `COc1ccc(NC(=O)c2cc3ccccn3n2)cc1`, for which the EC50 is 4.38 µM.
The value for `CCCC(=O)Nc1ccc(-c2nc3cc(C)ccc3o2)cc1` was 12 µM.
The value for `Cc1ccnc(Nc2nc3ccccc3o2)n1` was 13 µM; that for `O=C(COc1ccc(CO)cc1Cl)Nc1ccc(F)cc1` was 3.02 µM.
The value for `Cc1ccccc1C(=O)N/N=C/c1ccc([N+](=O)[O-])s1` was 25.5 µM.
With `COc1cc([N+](=O)[O-])ccc1N/C=C/C(=O)c1cccs1`, the EC50 was 2.05 µM.
On to `c1ccc(OCCSc2nnc3sc4ccccc4n23)cc1`, for which the EC50 was 1.43 µM.
`Cc1cc(C)n(-c2nc3ccccc3nc2N2CCC(C)CC2)n1`: the EC50 is > 50 µM (inactive).
Consider `O=C(Nc1cccc(O)c1)c1noc2c1CCCCC2`, for which the concentration for a half-maximal effect (EC50) is 0.23 µM.
Next, `COc1ccc(-c2cc3nc(C)cc(N)n3n2)cc1`: 1.73 µM; `O=C1C(Cl)=C(N2CCCCC2)C(=O)C(Cl)=C1c1cnc(N2CCCCC2)s1`: 4.53 µM; `Cc1cc(NC(=O)CSc2nc(-c3ccco3)cc(C(F)(F)F)n2)no1`: > 50 µM (inactive).
The value for `Cc1ccc(NC(=O)c2ccc3c(c2)OCCO3)cc1` was 1.71 µM.
Consider `CC(C)(C)c1ccc(OCC(O)CSc2ncn[nH]2)cc1` (stereo unspecified), for which the EC50 is 16.9 µM.
For `CN(C)CCCNS(=O)(=O)c1ccc(N2CCC(c3ccc(Cl)cc3)=N2)cc1`, the EC50 was 12 µM.
Next, `COc1ccc(C(=O)Nn2c(SCC(=O)NCc3ccccc3)nc3ccccc3c2=O)cc1`: 1.29 µM; `COc1ccc(-c2nc3ccccc3[nH]2)cc1`: 2.72 µM; `O=C(/C=C/Nc1cccc(O)c1)c1ccccc1`: 1.32 µM.
The value for `Cc1nn2cc(-c3ccccc3)nc2s1` was 12.3 µM; that for `Brc1ccccc1-c1nc(-c2ccccc2)no1` was 6.92 µM; that for `O=C(CCCc1ccccc1)c1ccc2c(c1)OCCO2` was 0.28 µM.
The value for `COCCn1c(C)cc(C2=NNC(=Nc3ccccc3)SC2)c1C` was 5.3 µM.
Turning to `Cc1ccc(-c2nc3cc(NC(=O)C(C)C)ccc3o2)cc1`, the EC50 was 5.62 µM.
Next, `CCC/C(O)=C1\C(=O)CC(C)(C)CC1=Nc1ccc(OC)cc1OC`: 23.6 µM; `COc1cccc(C(=O)/C=C/Nc2cccc(O)c2)c1`: 0.18 µM; `Cc1ccoc1C(=O)Nc1ccc(CC(=O)O)cc1`: 0.42 µM.
Take `CC1=CC(C)(C)Nc2ccc(OC(=O)CN3C(=O)CCC3=O)cc21`: the EC50 is 42 µM.
Next, `Cc1cc(C)c(C)c(S(=O)(=O)Nc2ccccc2C(=O)NCCCn2ccnc2)c1C`: 1.82 µM; `CCOc1ccc(-c2cc(CCCC(=O)Nc3cc(OC)ccc3OC)no2)cc1`: 3.5 µM.
Next, `Cc1cc(C(=O)Nc2cccc(C(=O)O)c2)oc1C`: 0.82 µM; `COc1cccc(-c2nc3cc(C)ccc3o2)c1`: 4.41 µM; `CC(C)CNC(=O)c1coc(=O)c(Br)c1`: 18.5 µM.
Next, `COc1ccc(C(=O)Nn2c(SCC(=O)NCc3ccco3)nc3ccccc3c2=O)cc1`: 1.14 µM.
With `O=C(Nc1ccc(CN2CCOCC2)cc1)c1cc2ccccn2n1`, the EC50 was 3.35 µM.
The value for `Cc1ccc(-c2nc(N/N=C/c3ccncc3)c3ccccc3n2)cc1` was 0.57 µM.
As for `CCOC(=O)CCS(=O)(=O)c1nc(-c2ccccc2)cc(C(F)(F)F)n1`, the EC50 was 15.7 µM.
The value for `Cc1ccc(NC2=Nc3ccccc3CC2)cc1` was 2.72 µM; that for `O=C1c2ccccc2C(=O)C1c1ccnc2ccccc12` was 1.02 µM.

For the origin of these results see PubChem BioAssay AID618 (Sanford-Burnham Center for Chemical Genomics, 2007).
